Several values for one entry are separate records, joined by “and”; a condition that tells them apart may be missing. Identical values can stand only once. Like-named read-outs stand apart in the source and are kept apart here.
Tests used:
H129 hepatoma = test: Syngenic orthotopic H129 hepatoma mouse model, survival; format: in vivo, C3H/HeN mice
From the text: C3H/HeN mice aged 10–12 weeks with an average weight of 25 g were used for this model and were obtained from Charles River (Sulzfeld, Germany). Experiments were initiated after an acclimatizing period of at least 8 days. Syngenic murine H129 hepatoma cells (obtained from Dr. V. Schmitz, University of Bonn, Germany) were cultivated in RPMI medium, containing 10% fetal calf serum (FCS) and 5% glutamine. Cells were harvested in a subconfluent state (70–80%), prepared for injection of 5×10^4 cells/20 μL in growth factor-free Matrigel, and transplanted in the left upper liver lobe. Animals with surgical failures were marked and excluded from the experiment. Treatment was initiated 4–5 days after transplantation. One set of mice received regorafenib 10 mg/kg once daily, vehicle solution once daily, or no treatment (n=8 per treatment group). […] Treatments were given orally via gavage. The vehicle solution contained 10% Transcutol, 10% Cremophor, and 80% 0.9% NaCl. Animals were weighed twice a week and monitored daily for behavior and wound healing. […] Due to ascites formation in the peritoneum (a symptom of the disease), body weight was not used as part of the assessment. Animals were dissected to assess the cause of death unless they had died in their cage overnight.
In the syngenic orthotopic H129 model, differences in survival times between groups were analyzed for significance using log-rank tests. Analysis of tumor volumes of the HCC-PDX models was performed with log2-transformed values on defined days of measurement based on the assumption of their log-normal distribution. […] All respective statistical test results were derived from a common linear model that allows for individual variances in the different groups. The adjustment for multiple testing was carried out using Šidák correction at a significance level of 0.05. […] Bead-based western data were analyzed (described in [15]) using the MEV 4.8.1 software package. […]

[1] = system: uHCC progressed on sorafenib treatment; design: method as in PMID 27932229; settings: patients with uHCC who progressed on sorafenib, cited from earlier work
[2] = system: HCC-PDX model 189 xenografts; test: DigiWest bead-based multiplex western blot of treated xenografts; format: in vivo, BALB/c nude mice; settings: 24 hours after last dose, sorafenib 30 mg/kg/day
Experimental: For high-content Western analysis, DigiWest was performed as described by Treindl et al.. In brief, xenograft tissue was ground by a Mikro-Dismembrator (Sartorius) and subsequently lysed by the addition of 2× LDS lysis buffer (Life Technologies™) and heated to 95°C for 9 minutes with several vortexing steps. Undissolved material was removed by consecutive centrifugation at 20°C for 2 minutes at 300 x g, 5 minutes at 16,000 x g, and through a QIAshredder homogenizer tube (Qiagen) for 5 minutes at 16,000 x g. Protein concentration was determined by in-gel staining. 3 μL lysate was separated by SDS-PAGE stained with IRDye® Blue and detected with a Li-COR Odyssey Infrared Imaging System (Li-COR Biosciences, Bad Homburg, Germany) at 700 nm. Next, 12 μg protein per sample was separated using 4–12% Bis-Tris gels (Life Technologies™) according to the manufacturer’s instructions. Blotting onto PVDF membranes (Millipore) was performed under standard conditions. Proteins immobilized on the blotting membrane were biotinylated (NHS-PEG12-Biotin, Thermo Scientific) and individual sample lanes were cut into 96 strips each (height 0.5 mm each, strip width 7.5 mm) using an electronic cutting tool (Silhouette SD). Each individual strip was placed in a separate well of a 96-well plate, and protein was eluted for 2 hours in 10 μL elution buffer (8 M urea, 1% Triton-X100 in 100 mM Tris-HCl, pH 9.5). After the addition of 90 μL of dilution buffer (5% BSA in PBS, 0.02% sodium azide, 0.05% Tween-20), 96 different Neutravidin-coated Luminex bead sets (40,000 beads/well) were added to the individual wells, and eluted biotinylated proteins were captured on the bead surface during overnight incubation. After incubation, the Luminex beads were pooled, washed, and stored in storage buffer (1% BSA, 0.05% Tween-20, 0.05% sodium azide in PBS) at 4°C.
For antibody incubation, an aliquot of the bead pool was transferred into an assay plate and 30 μL of diluted western blot antibody in assay buffer (Blocking Reagent, Roche Applied Science; 0.05% Tween 20, 0.02% sodium azide, 0.2% milk powder) was added per well. 116 antibody incubations on 12 samples were performed overnight at 4°C. For read-out, beads were washed twice with 100 μL of PBST before species-specific PE-labeled secondary antibodies (Jackson) were added in 30 μL of assay buffer for 1 hour. […]
DigiWest analysis was performed as previously described. In brief, data generated by the Luminex instrument were analyzed using a dedicated analysis tool that visualizes the fluorescent signals as bar graphs and identifies antibody-specific peaks. […] After background correction, specific signal intensities are calculated as the integral of the identified peak.

unresectable HCC (uHCC) [3] = settings: patients with uHCC; placebo 7.9 months; cited from earlier work
unresectable HCC (uHCC) [4] = settings: placebo 4.2 months; cited from earlier work

SMILES | Median survival, days (95% CI) (H129 hepatoma; regorafenib 10 mg/kg/day oral, start 4–5 days after implantation, vehicle 27 days) | Median survival, days (95% CI) (H129 hepatoma; regorafenib 10 mg/kg/day oral, start 4–5 days after implantation, vehicle 27 days, listed as regorafenib) | Hazard ratio for OS vs placebo ([1]; 95% CI 0.50, 0.79) | Median OS ([1]; placebo 7.8 months) | Median survival, days (95% CI) (H129 hepatoma; sorafenib 30 mg/kg/day oral, separate study, vehicle 28 days) | FGF-1 protein expression vs vehicle [2] | Full-length PARP protein expression vs vehicle [2] | Mst2 protein expression vs vehicle [2] | cdc2-pY15 protein expression vs vehicle [2] | Median OS (unresectable HCC (uHCC) [3]) | Median OS (unresectable HCC (uHCC) [4])
CNC(=O)c1cc(Oc2ccc(NC(=O)Nc3ccc(Cl)c(C(F)(F)F)c3)c(F)c2)ccn1 [Regorafenib] | 36 (31, 38) days | 36 days | 0.63 | 10.6 months |  |  |  |  |  |  | 
CNC(=O)c1cc(Oc2ccc(NC(=O)Nc3ccc(Cl)c(C(F)(F)F)c3)cc2)ccn1 [Sorafenib] |  |  |  |  | 33 days and 33 (27, 35) days | downregulated | significantly downregulated | downregulated | downregulated | 10.7 months | 6.5 months

Reference: article PMC5739799 (Oncotarget, 2017)
